Consider one molecule from PMC8766756, “Insights on Cancer Cell Inhibition, Subcellular Activities, and Kinase Profile of Phenylacetamides Pending 1H-Imidazol-5-One Variants” (Frontiers in Pharmacology, 2022).

“And” between values parts separate entries of the source, which are not always exact repeats. Equal entries are not always repeated.

What all share (experiment): PamChip tyrosine kinase microarray
Holding throughout (format): biochemical
What all share (details): 0.1 µM, HL60 lysate

One experiment addresses T1, Ros (P08922) (Homo sapiens, UniProt P08922).
T1 construct: purchased PamGene (PamChip PTK array, Upstream Kinase Analysis)
Put shortly: (§1)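 HL60 (AML) cell lysate was spiked with compound at 0.001, 0.01, 0.1, 1, 10 and 50 µM, or 2% v/v DMSO as control, then profiled in technical replicates on a tyrosine kinase peptide array of 196 phosphosites. Kinase activity was inferred from peptide-set changes using an upstream kinase tool.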

Another experiment has as its target T2, FLT3 (P36888) (Homo sapiens, UniProt P36888).
T2 construct: purchased PamGene (PamChip PTK array, Upstream Kinase Analysis)
T2 sequence (P36888 27-993): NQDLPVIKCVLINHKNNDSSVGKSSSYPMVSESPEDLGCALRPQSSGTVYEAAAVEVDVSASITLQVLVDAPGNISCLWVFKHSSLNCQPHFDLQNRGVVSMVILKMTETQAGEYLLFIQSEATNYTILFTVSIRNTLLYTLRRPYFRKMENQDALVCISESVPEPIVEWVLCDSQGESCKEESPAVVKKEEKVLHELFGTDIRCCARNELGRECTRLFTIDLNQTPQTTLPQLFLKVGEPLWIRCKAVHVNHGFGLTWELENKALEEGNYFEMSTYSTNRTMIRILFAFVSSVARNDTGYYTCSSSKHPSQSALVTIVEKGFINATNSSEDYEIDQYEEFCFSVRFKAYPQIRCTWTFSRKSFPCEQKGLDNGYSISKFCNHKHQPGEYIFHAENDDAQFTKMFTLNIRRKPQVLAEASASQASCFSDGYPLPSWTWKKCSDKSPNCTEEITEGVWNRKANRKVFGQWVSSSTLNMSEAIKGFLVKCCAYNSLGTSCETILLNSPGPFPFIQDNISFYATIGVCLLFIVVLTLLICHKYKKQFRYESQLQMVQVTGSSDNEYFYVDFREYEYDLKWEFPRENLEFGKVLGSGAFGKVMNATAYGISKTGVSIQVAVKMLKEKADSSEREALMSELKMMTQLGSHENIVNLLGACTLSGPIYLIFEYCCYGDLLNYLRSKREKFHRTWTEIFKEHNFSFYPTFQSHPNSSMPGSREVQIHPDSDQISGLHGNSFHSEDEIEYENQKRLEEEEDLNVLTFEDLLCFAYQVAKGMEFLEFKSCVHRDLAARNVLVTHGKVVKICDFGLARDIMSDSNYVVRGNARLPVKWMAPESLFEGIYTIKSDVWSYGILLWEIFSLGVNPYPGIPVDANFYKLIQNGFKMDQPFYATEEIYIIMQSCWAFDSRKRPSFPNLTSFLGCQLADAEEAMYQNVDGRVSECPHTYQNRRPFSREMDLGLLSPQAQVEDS
Put shortly:
as §1

The next experiment concerns the target T3, ITK (Q08881) (Homo sapiens, UniProt Q08881).
T3 construct: purchased PamGene (PamChip PTK array, Upstream Kinase Analysis)
T3 sequence (Q08881 1-620): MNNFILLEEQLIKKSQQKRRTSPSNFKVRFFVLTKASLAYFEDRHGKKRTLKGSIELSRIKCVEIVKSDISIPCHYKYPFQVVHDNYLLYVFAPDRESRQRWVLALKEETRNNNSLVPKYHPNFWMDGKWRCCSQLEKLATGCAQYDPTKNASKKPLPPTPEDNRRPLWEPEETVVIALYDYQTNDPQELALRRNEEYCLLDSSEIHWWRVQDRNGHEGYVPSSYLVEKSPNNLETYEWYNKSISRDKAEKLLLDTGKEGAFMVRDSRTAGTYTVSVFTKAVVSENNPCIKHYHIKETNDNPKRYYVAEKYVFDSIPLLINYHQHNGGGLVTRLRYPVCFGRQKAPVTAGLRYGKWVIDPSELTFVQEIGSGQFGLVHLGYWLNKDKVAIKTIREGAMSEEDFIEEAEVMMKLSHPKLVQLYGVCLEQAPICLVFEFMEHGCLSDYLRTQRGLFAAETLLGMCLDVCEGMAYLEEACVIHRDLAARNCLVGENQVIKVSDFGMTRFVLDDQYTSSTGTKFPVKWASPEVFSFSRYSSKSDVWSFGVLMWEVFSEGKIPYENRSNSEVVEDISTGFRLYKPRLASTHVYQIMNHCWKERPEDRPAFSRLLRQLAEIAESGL
Put shortly:
as §1

The next experiment deals with T4, FAK1 (Q05397) (Homo sapiens, UniProt Q05397).
T4 construct: purchased PamGene (PamChip PTK array, Upstream Kinase Analysis)
Put shortly: as §1

In another experiment the target is T5, FmS/CSFR (P07333) (Homo sapiens, UniProt P07333).
T5 construct: purchased PamGene (PamChip PTK array, Upstream Kinase Analysis)
Put shortly:
as §1

T1 sequence (P08922 28-2347): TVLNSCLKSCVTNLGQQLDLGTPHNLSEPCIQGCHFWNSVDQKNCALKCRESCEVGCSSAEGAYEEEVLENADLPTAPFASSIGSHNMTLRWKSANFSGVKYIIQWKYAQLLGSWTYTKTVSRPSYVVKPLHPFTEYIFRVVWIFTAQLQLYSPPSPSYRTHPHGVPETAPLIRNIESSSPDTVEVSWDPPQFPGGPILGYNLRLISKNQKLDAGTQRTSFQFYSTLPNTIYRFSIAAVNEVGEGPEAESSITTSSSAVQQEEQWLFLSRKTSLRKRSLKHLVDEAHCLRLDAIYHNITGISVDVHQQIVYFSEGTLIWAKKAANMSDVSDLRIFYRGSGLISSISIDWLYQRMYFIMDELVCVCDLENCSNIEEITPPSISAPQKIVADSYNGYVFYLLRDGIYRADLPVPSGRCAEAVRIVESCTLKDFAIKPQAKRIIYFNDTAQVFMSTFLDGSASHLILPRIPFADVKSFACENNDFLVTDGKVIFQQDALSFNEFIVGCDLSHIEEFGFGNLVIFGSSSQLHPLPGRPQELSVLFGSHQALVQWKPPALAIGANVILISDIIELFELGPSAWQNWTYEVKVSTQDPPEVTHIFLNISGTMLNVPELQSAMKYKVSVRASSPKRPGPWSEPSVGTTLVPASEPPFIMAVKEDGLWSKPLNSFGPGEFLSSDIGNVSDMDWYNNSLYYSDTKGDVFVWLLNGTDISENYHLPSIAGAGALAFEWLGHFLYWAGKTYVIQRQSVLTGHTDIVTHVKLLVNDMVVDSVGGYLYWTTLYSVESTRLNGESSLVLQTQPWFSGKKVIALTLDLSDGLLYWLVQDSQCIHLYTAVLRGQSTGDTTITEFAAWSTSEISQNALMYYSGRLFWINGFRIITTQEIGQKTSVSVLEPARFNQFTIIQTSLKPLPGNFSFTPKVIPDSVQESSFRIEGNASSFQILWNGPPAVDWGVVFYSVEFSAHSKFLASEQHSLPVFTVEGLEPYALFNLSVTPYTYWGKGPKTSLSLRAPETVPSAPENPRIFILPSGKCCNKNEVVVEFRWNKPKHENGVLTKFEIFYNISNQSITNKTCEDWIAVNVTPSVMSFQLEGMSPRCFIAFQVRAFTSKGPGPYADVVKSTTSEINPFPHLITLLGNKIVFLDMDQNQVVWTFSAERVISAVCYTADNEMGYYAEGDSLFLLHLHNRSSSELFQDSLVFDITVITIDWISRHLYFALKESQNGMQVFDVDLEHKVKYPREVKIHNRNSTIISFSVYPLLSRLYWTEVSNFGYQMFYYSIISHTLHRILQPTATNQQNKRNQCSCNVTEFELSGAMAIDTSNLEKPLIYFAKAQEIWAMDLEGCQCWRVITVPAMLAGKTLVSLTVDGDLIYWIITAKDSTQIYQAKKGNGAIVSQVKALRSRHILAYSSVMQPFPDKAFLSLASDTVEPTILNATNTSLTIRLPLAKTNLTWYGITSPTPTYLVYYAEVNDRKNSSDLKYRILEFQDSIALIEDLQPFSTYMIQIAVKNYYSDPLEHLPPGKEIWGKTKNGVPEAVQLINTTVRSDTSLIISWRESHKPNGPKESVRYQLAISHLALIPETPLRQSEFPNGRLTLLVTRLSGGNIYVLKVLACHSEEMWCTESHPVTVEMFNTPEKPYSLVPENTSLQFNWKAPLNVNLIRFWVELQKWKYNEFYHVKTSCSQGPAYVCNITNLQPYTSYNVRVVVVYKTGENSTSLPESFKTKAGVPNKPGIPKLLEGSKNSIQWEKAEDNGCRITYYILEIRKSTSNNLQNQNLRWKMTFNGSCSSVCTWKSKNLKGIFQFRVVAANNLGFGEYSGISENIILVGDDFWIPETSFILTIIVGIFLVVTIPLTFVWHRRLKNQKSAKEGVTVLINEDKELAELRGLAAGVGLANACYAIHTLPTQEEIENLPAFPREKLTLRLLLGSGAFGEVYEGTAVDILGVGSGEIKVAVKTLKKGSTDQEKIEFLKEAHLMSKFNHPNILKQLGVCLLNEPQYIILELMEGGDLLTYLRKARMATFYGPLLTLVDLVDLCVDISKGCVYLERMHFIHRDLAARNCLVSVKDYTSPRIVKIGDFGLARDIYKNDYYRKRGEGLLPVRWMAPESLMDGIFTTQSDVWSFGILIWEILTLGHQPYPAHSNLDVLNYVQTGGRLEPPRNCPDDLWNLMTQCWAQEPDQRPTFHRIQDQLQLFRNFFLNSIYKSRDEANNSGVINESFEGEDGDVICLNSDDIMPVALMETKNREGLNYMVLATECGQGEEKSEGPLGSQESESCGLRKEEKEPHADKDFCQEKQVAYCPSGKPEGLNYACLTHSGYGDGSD
T4 sequence (Q05397 whole entry): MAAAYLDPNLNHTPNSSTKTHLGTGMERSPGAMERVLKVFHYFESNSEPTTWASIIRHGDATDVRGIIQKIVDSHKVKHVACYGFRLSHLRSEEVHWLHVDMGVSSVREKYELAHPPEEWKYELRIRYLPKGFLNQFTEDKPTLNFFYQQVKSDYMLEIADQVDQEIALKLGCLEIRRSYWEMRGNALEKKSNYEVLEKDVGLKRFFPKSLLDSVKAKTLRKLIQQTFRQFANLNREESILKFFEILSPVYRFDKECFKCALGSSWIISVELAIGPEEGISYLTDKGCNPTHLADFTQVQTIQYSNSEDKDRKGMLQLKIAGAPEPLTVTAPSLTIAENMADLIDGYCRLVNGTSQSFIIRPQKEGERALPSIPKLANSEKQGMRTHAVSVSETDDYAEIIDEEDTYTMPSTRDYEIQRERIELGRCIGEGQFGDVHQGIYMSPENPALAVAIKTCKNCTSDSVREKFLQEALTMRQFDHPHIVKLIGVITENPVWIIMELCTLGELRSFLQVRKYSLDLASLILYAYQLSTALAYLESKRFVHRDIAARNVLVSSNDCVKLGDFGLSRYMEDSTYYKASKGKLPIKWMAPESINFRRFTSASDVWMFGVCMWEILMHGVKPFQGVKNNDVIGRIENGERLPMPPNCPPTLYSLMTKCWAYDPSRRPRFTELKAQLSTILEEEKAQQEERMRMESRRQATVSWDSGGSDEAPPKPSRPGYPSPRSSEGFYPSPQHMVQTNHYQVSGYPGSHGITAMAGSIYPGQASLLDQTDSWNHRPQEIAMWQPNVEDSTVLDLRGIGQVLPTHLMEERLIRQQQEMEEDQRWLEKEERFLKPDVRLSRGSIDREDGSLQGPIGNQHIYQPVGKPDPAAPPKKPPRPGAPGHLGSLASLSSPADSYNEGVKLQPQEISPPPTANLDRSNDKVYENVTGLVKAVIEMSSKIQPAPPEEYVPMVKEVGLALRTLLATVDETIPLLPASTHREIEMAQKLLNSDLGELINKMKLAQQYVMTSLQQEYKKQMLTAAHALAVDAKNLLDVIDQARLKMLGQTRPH
T5 sequence (P07333 20-972, one chain of several): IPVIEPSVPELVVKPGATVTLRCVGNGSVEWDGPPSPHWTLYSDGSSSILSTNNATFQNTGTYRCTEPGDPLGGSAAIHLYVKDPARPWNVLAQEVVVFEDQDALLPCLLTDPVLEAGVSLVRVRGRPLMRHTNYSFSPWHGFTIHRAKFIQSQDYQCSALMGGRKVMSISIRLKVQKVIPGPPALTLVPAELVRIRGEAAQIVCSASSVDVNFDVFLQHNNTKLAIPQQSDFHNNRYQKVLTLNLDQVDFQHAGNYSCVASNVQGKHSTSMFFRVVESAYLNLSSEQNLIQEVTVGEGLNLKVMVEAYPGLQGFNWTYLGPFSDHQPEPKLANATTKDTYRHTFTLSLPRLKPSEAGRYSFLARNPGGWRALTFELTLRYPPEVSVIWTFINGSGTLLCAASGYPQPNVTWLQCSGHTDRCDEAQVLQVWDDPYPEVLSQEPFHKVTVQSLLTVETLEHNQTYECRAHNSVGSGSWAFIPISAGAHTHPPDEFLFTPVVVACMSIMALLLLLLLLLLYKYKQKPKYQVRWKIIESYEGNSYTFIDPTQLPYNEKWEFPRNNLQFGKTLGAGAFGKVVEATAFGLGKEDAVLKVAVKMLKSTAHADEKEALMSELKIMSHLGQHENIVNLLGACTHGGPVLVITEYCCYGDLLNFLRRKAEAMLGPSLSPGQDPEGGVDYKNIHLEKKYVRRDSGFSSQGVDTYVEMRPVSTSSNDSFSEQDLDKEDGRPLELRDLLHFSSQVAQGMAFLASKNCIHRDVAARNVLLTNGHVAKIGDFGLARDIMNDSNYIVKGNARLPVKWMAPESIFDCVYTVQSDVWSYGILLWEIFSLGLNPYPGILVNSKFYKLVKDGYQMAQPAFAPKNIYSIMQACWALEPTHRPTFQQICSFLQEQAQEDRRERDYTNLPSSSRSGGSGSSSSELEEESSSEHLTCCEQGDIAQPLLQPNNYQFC

With `COc1ccc(/C=C2\N=C(C)N(c3ccc(CC(=O)NCc4ccccc4)cc3)C2=O)cc1` [Compound 4c, (Z)-N-Benzyl-2-(4-(4-(4-methoxybenzylidene)-2-methyl-5-oxo-4,5-dihydro-1H-imidazol-1-yl)phenyl)acetamide], the “Mean Significance Score” value at Ros (P08922) turned out to be 1.955; on FLT3 (P36888), 2.042; at ITK (Q08881), 2.048; on FAK1 (Q05397) it was 2.048; on FmS/CSFR (P07333), 2.048. For the same molecule, the “Mean Specificity Score” value at Ros (P08922) is 0.9862; at FLT3 (P36888), 1.043; on ITK (Q08881) it was 2.074; on FAK1 (Q05397), 0.5313; on FmS/CSFR (P07333), 0.582. Moreover, the “Mean Final score (Kinase score)” value is 2.90 and 2.9031 at Ros (P08922) (listed as KIM-161); 3.19 and 3.193 at FLT3 (P36888) (listed as KIM-161); 3.95 and 3.951 on ITK (Q08881) (listed as KIM-161); 2.506 at FAK1 (Q05397); 2.549 at FmS/CSFR (P07333). In addition, the figures for the “Mean Kinase Statistic” value on FAK1 (Q05397) and at FmS/CSFR (P07333) were -1.237 and -1.225, respectively.
